What was measured:
[1] = biological target: hCA I (Homo sapiens, UniProt P00915); experiment: Esterase activity inhibition of hCA I purified from human erythrocytes (IC50, Ki); type: biochemical; settings: for inhibition effect on hCA I (in words): esterase activity; for Inhibition Type hCA I / Ki: Lineweaver-Burk plot; for Ki / IC50: NI = No Inhibition; for IC50: mean from three assays, spectrophotometric
Description: (§1) Esterase activities of purified hCA I and hCA II were determined according to the literature. Activity measurement has described in detail in our previous studies.
(§2) The method for determination of Ki values has described in detail in our previous studies. […] The data have linearized with Lineweaver–Burk plot in order to obtain Ki values.
(§3) IC50 and Ki values were expressed by averaging the results from triplicate experiments.
(§4) The enzymatic reaction, in a total volume of 3.0 mL, contained 1.4 mL of 0.05 M TRIS–SO4 buffer (pH 7.4), 1.0 mL of 3.0 mM 4-nitrophenylacetate, 0.5 mL H2O and 0.1 mL enzyme solution. A reference measurement was obtained by preparing the same cuvette without enzyme solution [46–49, 53].
(§5) Regression analysis graphs were drawn by plotting the percent enzyme activity versus inhibitor concentration and IC50 values were calculated.
(§6) Enzyme activity was also measured in the presence of the same substrate concentrations but in the absence of any inhibitor to determine the Vmax.

[2] = biological target: hCA II (Homo sapiens, UniProt P00918); experiment: Esterase activity inhibition of hCA II purified from human erythrocytes (IC50, Ki); type: biochemical; settings: for inhibition effect on hCA II (in words): esterase activity; for Inhibition Type hCA II / Ki: Lineweaver-Burk plot; for Ki / IC50: NI = No Inhibition; for IC50: mean from three assays, spectrophotometric
Description: as §1, §2, §3, §4, §5, §6

Sequence of hCA I (P00915 whole entry): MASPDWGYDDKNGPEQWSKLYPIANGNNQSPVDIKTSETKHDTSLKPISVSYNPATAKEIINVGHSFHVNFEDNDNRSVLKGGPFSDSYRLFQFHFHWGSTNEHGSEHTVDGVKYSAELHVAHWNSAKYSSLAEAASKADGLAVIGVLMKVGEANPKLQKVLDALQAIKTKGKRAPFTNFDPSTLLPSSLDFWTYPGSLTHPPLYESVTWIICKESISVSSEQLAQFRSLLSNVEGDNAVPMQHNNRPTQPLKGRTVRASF

Row | inhibition effect on hCA I (in words) [1] | inhibition effect on hCA II (in words) [2] | melting point [°C] | Inhibition Type hCA I [1] | Ki [1] [nM] | IC50 [1] [nM] | Inhibition Type hCA II [2] | Ki [2] [nM] | IC50 [2] [nM] | maximal decrease of hCA I activity ([1]; at most) [%] | stronger inhibitory effect than AAZ for hCA II ([2]; compared with reference compound AAZ) | SMILES
1 | did not show any inhibition effect | did not show any inhibition effect | 237 to 239 | – | – | – | – | – | – | – | – | Cc1ccnc(NS(=O)(=O)c2ccc(NC(=O)c3nn(-c4ccccc4)c(-c4ccccc4)c3C(=O)c3ccccc3)cc2)n1 [Compound 6f, 4-benzoyl-N-(4-(N-(4-methylpyrimidin-2-yl)sulfamoyl)phenyl)-1,5-diphenyl-1H-pyrazole-3-carboxamide]
2 | did not show any inhibition effect | did not show any inhibition effect | 280 to 282 | – | – | – | – | – | – | – | – | N=C(N)NS(=O)(=O)c1ccc(NC(=O)c2nn(-c3ccccc3)c(-c3ccccc3)c2C(=O)c2ccccc2)cc1 [Compound 6i, 4-benzoyl-N-(4-(N-carbamimidoylsulfamoyl)phenyl)-1,5-diphenyl-1H-pyrazole-3-carboxamide]
3 | – | did not inhibit | 252 to 254 | – | – | – | – | – | – | – | – | O=C(Nc1ccc(S(=O)(=O)Nc2nccs2)cc1)c1nn(-c2ccccc2)c(-c2ccccc2)c1C(=O)c1ccccc1 [Compound 6h, 4-benzoyl-1,5-diphenyl-N-(4-(N-(thiazol-2-yl)sulfamoyl)phenyl)-1H-pyrazole-3-carboxamide]
4 | – | – | 165 to 167 | – | – | 1660 | – | – | – | ≤ 50 | – | Cc1noc(NS(=O)(=O)c2ccc(NC(=O)c3nn(-c4ccccc4)c(-c4ccccc4)c3C(=O)c3ccccc3)cc2)c1C [Compound 6g, 4-benzoyl-N-(4-(N-(3,4-dimethylisoxazol-5-yl)sulfamoyl)phenyl)-1,5-diphenyl-1H-pyrazole-3-carboxamide]

The next lines start with the compound.

Row | SMILES | inhibition effect on hCA I (in words) [1] | inhibition effect on hCA II (in words) [2] | melting point [°C] | Inhibition Type hCA I [1] | Ki [1] [nM] | IC50 [1] [nM] | Inhibition Type hCA II [2] | Ki [2] [nM] | IC50 [2] [nM] | maximal decrease of hCA I activity ([1]; at most) [%] | stronger inhibitory effect than AAZ for hCA II ([2]; compared with reference compound AAZ)
5 | O=C(Nc1ccc(S(=O)(=O)Nc2ccccn2)cc1)c1nn(-c2ccccc2)c(-c2ccccc2)c1C(=O)c1ccccc1 [Compound 6d, 4-benzoyl-1,5-diphenyl-N-(4-(N-(pyridin-2-yl)sulfamoyl)phenyl)-1H-pyrazole-3-carboxamide] | did not show any inhibition effect | did not show any inhibition effect | 239 to 241 | – | – | – | – | – | – | – | –
6 | NS(=O)(=O)c1ccccc1NC(=O)c1nn(-c2ccccc2)c(-c2ccccc2)c1C(=O)c1ccccc1 [Compound 6c, 4-benzoyl-1,5-diphenyl-N-(2-sulfamoylphenyl)-1H-pyrazole-3-carboxamide] | – | – | 233 to 235 | Non competitive | 3370 | 6200 | Non competitive | 4230 | 6410 | – | –
7 | O=C(Nc1ccc(S(=O)(=O)Nc2ncccn2)cc1)c1nn(-c2ccccc2)c(-c2ccccc2)c1C(=O)c1ccccc1 [Compound 6e, 4-benzoyl-1,5-diphenyl-N-(4-(N-(pyrimidin-2-yl)sulfamoyl)phenyl)-1H-pyrazole-3-carboxamide] | did not show any inhibition effect | did not show any inhibition effect | 244 to 246 | – | – | – | – | – | – | – | –
8 | NS(=O)(=O)c1cccc(NC(=O)c2nn(-c3ccccc3)c(-c3ccccc3)c2C(=O)c2ccccc2)c1 [Compound 6b, 4-benzoyl-1,5-diphenyl-N-(3-sulfamoylphenyl)-1H-pyrazole-3-carboxamide] | – | – | – | Non competitive | 237 | 463 | Non competitive | 30 | 139 | – | approximately fivefold

Source: article PMC11909088, “Synthesis, molecular docking and molecular dynamics simulations, drug-likeness studies, ADMET prediction and biological evaluation of novel pyrazole-carboxamides bearing sulfonamide moiety as potent carbonic anhydrase inhibitors” (Molecular Diversity, 2024)
